# Test results as given in patent publication US7491728B2, “Pyrimidinone compounds as calcilytics” (SmithKline Beecham Corp., priority 2004, dated 2009).
# Test: Bolus i.v. injection in normal conscious rats: plasma PTH and ionized calcium levels
# Type: in vivo, male Sprague-Dawley rats
# Method: FIG. 1 is a graph which depicts the effect of bolus i.v. injection of the compound of Example 9 on plasma PTH levels in normal rats.
# 5-Ethyl-3-[2-(2-fluoro-phenyl)-ethyl]-2-(2-hydroxy-phenyl)-6-methyl-3H-pyrimidin-4-one (1 or 3 μmol/kg) or vehicle was administered by intravenous injection over about 15 seconds to normal conscious male Sprague-Dawley rats with chronic indwelling arterial and venous catheters. Arterial blood samples were collected at 30 min and immediately before, and at 1, 5, 10, and 30 min after the start of the injection for measurement of the levels of parathyroid hormone (PTH) and ionized calcium (Ca^2+) in plasma. PTH was measured using a specific rat PTH (1-84) ELISA (Immutopics, San Clemente, Calif.). […] Plasma PTH levels had returned to pre-dose levels by 10 min after the injection (FIG. 1).
structure (smiles),measurement,setting,value
"CCc1c(C)nc(-c2ccccc2O)n(CCc2ccccc2F)c1=O [Example 9, 5-Ethyl-3-[2-(2-fluoro-phenyl)-ethyl]-2-(2-hydroxy-phenyl)-6-methyl-3H-pyrimidin-4-one]",effect on plasma PTH levels,"1 or 3 μmol/kg i.v. over about 15 seconds, normal conscious male Sprague-Dawley rats, rat PTH (1-84) ELISA, FIG. 1","rapid, but transient dose-related increase"
same,time after injection at which plasma PTH levels were maximal,"1 or 3 μmol/kg i.v., rats",1 min
same,time after injection by which plasma PTH levels had returned to pre-dose levels,"1 or 3 μmol/kg i.v., rats",≤ 10 min
same,changes in plasma Ca2+ levels,"1 or 3 μmol/kg i.v., rats, samples up to 30 min after injection (not shown)",no consistent changes
